Assay [1] relates to Vancomycin-resistant E. faecalis (VanA, ATCC 51575). Put plainly: MIC, micro-dilution broth, VRE (VanB). In kind it is cell-based. As to conditions: E. faecalis ATCC 51575; read-out: MIC VRE (VanB). (In general: Broth dilution looks for growth in wells or tubes with falling amounts of substance.)
For assay [2], the system named is methicillin-resistant S. epidermidis clinical isolate. Put plainly: MIC, clinical isolate of methicillin-resistant S. epidermidis. As to conditions: clinical isolate, methicillin-resistant. In kind it is cell-based.
The test system of assay [3] is Vancomycin-sensitive E. faecium (ATCC 19634). Put plainly: MIC, micro-dilution broth, VSE. In kind it is cell-based. As to conditions: ATCC 19634; read-out: MIC VSE. The protocol: (§1) All test compounds were assayed in a micro-dilution broth format. Stock solutions were made by serially diluting the compounds using autoclaved millipore water or broth media. The antibacterial activity of the compounds was determined against methicillin-sensitive S. aureus (MSSA), methicillin-resistant S. aureus (MRSA), vancomycin-intermediate-resistant S. aureus (VISA), vancomycin-sensitive E. faecium (VSE) and vancomycin-resistant E. faecium (VRE). Bacteria, to be tested, were grown for about 10 h in the suitable media, MSSA, MRSA and VISA were grown in yeast-dextrose broth (about 1 g of beef extract, about 2 g of yeast extract, about 5 g of peptone and about 5 g of NaCl in about 1000 mL of sterile distilled water (pH-7)). For solid media, about 5% agar was used along with above mentioned composition. VSE and VRE were cultured in brain heart infusion broth (Himedia). The bacterial samples were freeze dried and stored at −80° C. About 5 μL of these stocks were added to about 3 mL of the nutrient broth and the culture was grown for about 6 h at about 37° C. prior to the experiments. This 6 h grown culture gives about 10^9 cfu/mL and this was determined by spread plating method. The 6 h grown culture was diluted to give effective cell concentration of about 10^5 cfu/mL which was then used for determining MIC. Compounds were serially diluted, in sterile water (2 fold dilution is employed) in a way that the working concentration was about 10 μM for MSSA, MRSA, and VSE while for VRE and VISA it was about 100 μM. About 50 μL of these serial dilutions were added to the wells of 96 well plate followed by the addition of about 150 μL of bacterial solution. The plates were then incubated at about 37° C., 150 rpm in the incubator and O.D at 600 nm was recorded at an interval of about 10 h and 24 h using TECAN (Infinite series, M200 pro) Plate Reader. Each concentration had triplicate values and the whole experiment was done at least twice and the MIC value was determined by taking the average of triplicate. O. D. values for each concentration and plotting it against concentration. The data was then subjected to sigmoidal fitting. From the curve the MIC value was determined, as the point in the curve where the O. D. was similar to that of control having no bacteria.

Assay [4] deals with Methicillin-resistant S. aureus (ATCC 33591). Put plainly: MIC, micro-dilution broth, MRSA. In kind it is cell-based. As to conditions: ATCC 33591; read-out: MIC MRSA. As for the experimental part:
as §1

For assay [5], the system named is VISA. Put plainly: In-vivo time dependent whole blood assay. Set-up: species or system S. aureus. As to conditions: 12 mg/kg single i.v., CD-1 mice, VISA. As for the experimental part:
The derivative 7 and vancomycin were administered in a single intravenous injection (0.2 mL saline) to normal pathogen-free, female CD-1 mice. Doses of 12 mg kg^−1 were administered to three mice per data point. At the specified time-points (0, 3, 6, 12, 24 and 48 h) mice were euthanized (using ether), blood samples were collected from the ocular puncture. 60 μL of VISA in saline (0.9% NaCl; 10^6 CFU/mL) was added to 540 μL of whole blood which was drawn from the mice and incubated at 37° C. for 3 h. After the incubation period, antibacterial activity was determined by finding the bacterial titer in the infected blood.

For assay [6], the system named is methicillin-resistant S. aureus clinical isolate. Put plainly: MIC, clinical isolate of methicillin-resistant S. aureus. Type of assay: cell-based. As to conditions: clinical isolate, methicillin-resistant. The protocol: as §1
The test system of assay [7] is Methicillin-sensitive S. aureus (MTCC 737). Put plainly: MIC, micro-dilution broth, MSSA. As to conditions: MTCC 737; read-out: MIC MSSA. Type of assay: cell-based. As for the experimental part:
as §1

Assay [8] concerns Vancomycin-resistant E. faecium (VanA, ATCC 51559). Put plainly: MIC, micro-dilution broth, VRE (VanA). As to conditions: E. faecium ATCC 51559; read-out: MIC VRE (VanA). In kind it is cell-based. The protocol:
as §1

Assay [9] relates to methicillin-resistant vancomycin-intermediate S. aureus (MR-VISA). Put plainly: Time-kill assay. In kind it is cell-based. As to conditions: 2 μM and 4 μM. The protocol: The bactericidal activity was assessed by the kinetics or the rate at which it affects the killing action of the compound. Briefly methicillin-resistant vancomycin-intermediate S. aureus (MR-VISA) grown in Yeast-Dextrose broth. A starting inoculum of 1.6×10^8 CFU/ml was used as initial bacterial colony count. Vancomycin and compound 7 having final concentrations of 2 μM and 4 μM were inoculated with MR-VISA suspensions having starting inocula of 1.6×10^8 CFU/ml. Bacterial suspension containing specified concentrations of the compound along with negative control (which contains only 0.9% Saline) was incubated at 37° C. with shaking. Aliquots (20 μl) were removed from the cultures at different time intervals and were serially diluted 10-fold in 0.9% saline and plated onto sterile Yeast-Dextrose agar medium. The number of viable cells was determined by plating the 10-fold serial dilution of each sample onto Yeast-dextrose agar medium. Plates were then incubated for 24 h at 37° C., CFU was counted and the total bacterial log 10 CFU/ml was determined.

Assay [10] has as its system methicillin-resistant S. haemolyticus clinical isolate. Put plainly: MIC, clinical isolate of methicillin-resistant S. haemolyticus. Type of assay: cell-based. As to conditions: clinical isolate, methicillin-resistant; read-out: MIC S. haemolyticus.
Assay [11] relates to Vancomycin intermediate resistant S. aureus. Put plainly: MIC, micro-dilution broth, VISA. Type of assay: cell-based. As to conditions: read-out: MIC VISA. The protocol: as §1
Assay [12] deals with VISA. Put plainly: Ex-vivo whole blood assay. As to conditions: 3 h incubation in 90% human whole blood. In kind it is cell-based, S. aureus. As for the experimental part: Ex-vivo whole blood assay was performed to compare the abilities of these compounds to retain activity in complex media. To 30 μL of VISA in saline (0.9% NaCl; 10^6 CFU/mL) 10 μL of test compounds (vancomycin and compound 7) and 270 μL of fresh human whole blood were added and incubated, at 37° C. for about 3 h. After the incubation period, antibacterial activity was determined by finding the bacterial titer in the infected blood.

1 molecule from patent US20160303184A1, “VANCOMYCIN-SUGAR CONJUGATES AND USES THEREOF” (JAWAHARLAL NEHRU CENTRE FOR ADVANCED SCIENTIFIC RESEARCH …, priority 2013, published 2016) can be followed below.

SMILES strings stand for the structures. Converted amounts (≈) assume the structure as drawn. “Also recorded” adds a separate entry of the source. Where only a bound is given, the exact number is not on record here.

As to `CN[C@H](CC(C)C)C(=O)N[C@H]1C(=O)N[C@@H](CC(N)=O)C(=O)N[C@H]2C(=O)N[C@H]3C(=O)N[C@H](C(=O)N[C@H](C(=O)O)c4cc(O)cc(O)c4-c4cc3ccc4O)[C@H](O)c3ccc(c(Cl)c3)Oc3cc2cc(c3O[C@@H]2O[C@H](CO)[C@@H](O)[C@H](O)[C@H]2O[C@H]2C[C@](C)(N)[C@H](O)[C@H](C)O2)Oc2ccc(cc2Cl)[C@H]1O` [Vancomycin], the minimum inhibitory concentration (MIC) in assay [1] was 250 µM (≈ 362 µg/mL); in assay [3], 0.6 µM (≈ 0.87 µg/mL); in assay [4], 0.63 µM (≈ 0.913 µg/mL); in assay [7], 0.63 µM (≈ 0.913 µg/mL); in [8] it was greater than 700 µM; in assay [10] it was 1.4 µM (≈ 2.03 µg/mL). Also, in assay [11], the MIC turned out to be 13.0 µM (≈ 18.8 µg/mL). Further, the “MIC S. epidermidis” value in assay [2] amounted to 0.9 µM (≈ 1.3 µg/mL). Moreover, the “antibacterial activity of blood drawn at 3 h” value in [5] is listed as “did not show any activity; also recorded: nominal activity”. Further, in assay [5], the “antibacterial activity of blood drawn at 6 h” value is recorded as “did not show any activity”. The “MIC S. aureus” value in assay [6] is 0.7 µM (≈ 1.01 µg/mL). In assay [9], the killing kinetics result is “relatively slow killing or bacteriostatic effect”. Besides, the “bactericidal activity in whole blood” value in assay [12] is “slow killing”.

In general, MIC refers to the least concentration at which growth counts as inhibited.
